Measured values as given in ChEMBL document CHEMBL1201862, “PubChem BioAssay data set” (2004).
Active and inactive are the calls of the source.

Experiments:
[1] = target: Mitogen-activated protein kinase 10 (Homo sapiens, UniProt P53779); assay: Dose response biochemical screening assay for inhibitors of c-Jun N-Terminal Kinase 3 (JNK3). [Related pubchem assays: 746 ]
CAAX prenyl protease 2 = target: T1, CAAX prenyl protease 2 (Saccharomyces cerevisiae S288c, UniProt Q03530); format: biochemical
T1 sequence (Q03530 whole entry): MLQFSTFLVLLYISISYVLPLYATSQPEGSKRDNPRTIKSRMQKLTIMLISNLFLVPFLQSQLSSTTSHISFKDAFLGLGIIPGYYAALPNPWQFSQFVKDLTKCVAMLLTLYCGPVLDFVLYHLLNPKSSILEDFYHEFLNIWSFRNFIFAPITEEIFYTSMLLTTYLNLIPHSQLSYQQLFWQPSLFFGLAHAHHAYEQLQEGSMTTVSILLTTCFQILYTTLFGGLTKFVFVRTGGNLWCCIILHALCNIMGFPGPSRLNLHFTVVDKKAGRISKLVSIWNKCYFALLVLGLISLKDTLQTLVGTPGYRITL

CAAX prenyl protease 1 = CAAX prenyl protease 1 (Saccharomyces cerevisiae S288c, UniProt P47154); assay: yeast CAAX protease Ste24 inhibition – biochemical, S. cerevisiae, plate reader, cherry-pick, dose response (AID 488815)
CAAX prenyl protease 1, sequence (P47154 whole entry): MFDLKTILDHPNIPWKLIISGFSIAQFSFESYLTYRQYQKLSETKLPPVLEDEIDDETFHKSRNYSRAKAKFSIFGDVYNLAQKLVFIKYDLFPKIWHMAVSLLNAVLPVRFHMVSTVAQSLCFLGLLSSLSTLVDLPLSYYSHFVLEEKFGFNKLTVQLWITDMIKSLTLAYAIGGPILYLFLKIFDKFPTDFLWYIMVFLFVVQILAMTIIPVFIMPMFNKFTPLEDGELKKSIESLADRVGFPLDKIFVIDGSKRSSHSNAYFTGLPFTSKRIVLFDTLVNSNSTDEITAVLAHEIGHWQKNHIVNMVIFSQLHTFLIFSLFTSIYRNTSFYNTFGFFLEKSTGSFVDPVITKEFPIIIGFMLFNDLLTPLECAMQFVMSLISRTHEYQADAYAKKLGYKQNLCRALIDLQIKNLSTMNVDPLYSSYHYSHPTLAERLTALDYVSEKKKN

[2] = luciferase reporter signal suppression in cells – H4 neuroglioma cells, luminescence, dose response (AID 1990); format: functional, cell-based
[3] = decrease of insulin promoter-GFP reporter – imaging, high-content screening, mouse beta cells (AID 1628); format: functional; settings: MIN6
[4] = Luminescence Cell-Based Dose Response HTS to Identify Inhibitors of 5'UTR Stem-Loop Driven Prion Protein mRNA Translation in H4 Neuroglioblastoma Cells. [Related pubchem assays: 1827 (Project Summary), 1813 (Primary HTS)]; format: functional
[5] = MIN6 cell viability loss – mouse insulinoma, cytotoxicity control, dose response (AID 2122); format: functional;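 also: confirmatory high-throughput counterscreen run to flag cytotoxic compounds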
[6] = alpha-synuclein stem-loop luciferase translation blockers – H4 neuroglioma cells, luminescence, confirmation (AID 1988); format: functional, cell-based
[7] = viability of PTEN-deleted HCT116 cells – cell-based, HCT116 PTEN knockout, dose response (AID 1047); format: functional;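 also: HCT116 colon tumor cells with PTEN knocked out; cells exposed to compound for 60 hours before readout; potency for loss of cell viability measured by luminescence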
[8] = viability of HCT116 lacking mutant beta-catenin – cell-based, human colon tumor, dose response (AID 1045); format: functional;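 also: HCT116 colon tumor cells with beta catenin knocked out; cells exposed to compound for 60 hours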

Mitogen-activated protein kinase 10, sequence (P53779 whole entry): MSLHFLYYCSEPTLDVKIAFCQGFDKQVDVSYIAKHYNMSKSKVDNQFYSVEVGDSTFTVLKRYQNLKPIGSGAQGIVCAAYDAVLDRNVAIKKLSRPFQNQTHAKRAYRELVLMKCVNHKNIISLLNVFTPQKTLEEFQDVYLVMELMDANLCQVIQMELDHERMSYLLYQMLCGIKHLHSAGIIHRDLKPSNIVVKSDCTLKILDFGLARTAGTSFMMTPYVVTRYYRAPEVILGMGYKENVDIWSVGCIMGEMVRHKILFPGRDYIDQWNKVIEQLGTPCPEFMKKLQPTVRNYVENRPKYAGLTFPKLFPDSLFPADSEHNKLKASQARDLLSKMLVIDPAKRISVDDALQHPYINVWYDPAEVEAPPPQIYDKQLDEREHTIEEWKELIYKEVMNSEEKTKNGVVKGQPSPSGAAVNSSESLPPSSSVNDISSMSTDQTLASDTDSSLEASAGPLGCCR

Row | Compound | IC50 [1] | AC50 (CAAX prenyl protease 2) | AC50 (CAAX prenyl protease 1) | EC50 [2] | IC50 [3] | EC50 [4] | IC50 [5] | EC50 [6] | EC50 [7] | EC50 [8]
1 | COC(=O)c1ccccc1NC(=O)NCc1cccnc1 | > 93.1 µM (not active) | 26.1 µM (active) | 3.47 µM (active) | – | – | – | – | – | – | –
2 | COc1ccc(N2CCN(Cc3nc(N)nc(Nc4ccc(C)c(Cl)c4)n3)CC2)cc1 | – | – | – | 9.58 µM (active) | 3.03 µM (active) | 26.8 µM (active) | 4.31 µM (active) | 13.7 µM (active) | 28.9 µM (active) | 24 µM (active)
